Results on 20 compounds are retold here after patent US20250255848A1, “SUBSTITUTED 6,7-DIHYDRO-5H-BENZO[7]ANNULENE DERIVATIVES, PROCESSES FOR THEIR PREPARATION AND THERAPEUTIC USES THEREOF” (SANOFI, priority 2022, published 2025).

The IC50 is the concentration at which inhibition is half-maximal. The low end stands for greater potency in that assay, the high end for weaker potency in that assay.

This test concerns the target ERα (Homo sapiens (Human), UniProt P03372). Put plainly: Estrogen receptor degradation activity: breast cancer cell ERα in cell western assay. Particulars: MCF7 cells; for % Degradation At 0.3 μM: 4 hours, normalised to fulvestrant 0.1 μM and DMSO. Format: cell-based. The protocol: Said test involves measuring the in vitro degradation activity of the compounds of the Table 1a.
The measurements of the degradation activities were made using a breast cancer cell ERα in cell western assay as described hereunder.
MCF7 cells (ATCC) were seeded in 384 wells microplate (collagen coated) at a concentration of 10000 cells/30 μL per well in red phenol free MEM alpha medium (invitrogen) containing 5% charcoal dextran striped FBS. The following day, 9 points serial 1:5 dilution of each compound was added to the cells in 2.5 μL at final concentrations ranging from 0.3-0.0000018 μM (in table 2), or 0.1 μM for fulvestrant (using as positive control). At 4 hours post compound addition the cells were fixed by adding 25 μL of formalin (final concentration 5% formalin containing 0.1% triton) for 10 minutes at room temperature and then washed twice with PBS. Then, 50 μL of LI-COR blocking buffer containing 0.1% Triton was added to plate for 30 minutes at room temperature. LI-COR blocking buffer was removed and cells were incubated overnight at cold room with 50 μL anti-ER rabbit monoclonal antibody (Thermo scientific MA1-39540) diluted at 1:1000 in LI-COR blocking buffer containing 0.1% tween-20. Wells which were treated with blocking buffer but no antibody were used as background control. Wells were washed twice with PBS (0.1% tween-20) and incubated at 37° C. for 60 minutes in LI-COR (0.1% tween-20) containing goat anti-rabbit antibody Alexa 488 (1:1000) and Syto-64 a DNA dye (2 μM final concentration). Cells were then washed 3 times in PBS and scanned in ACUMEN explorer (TTP-Labtech). Integrated intensities in the green fluorescence and red fluorescence were measured to determine the levels of ERα and DNA respectively.
The degradation activity with respect to estrogen receptors in this test is given by the concentration which degrades 50% of the estrogen receptor (or IC50) in nM.
The % of ERα levels decrease were determined as follows: % inhibition=100*(1−(sample−fulvestrant:DMSO−fulvestrant)).

[1] abbreviates: 4 hours post compound addition, concentration which degrades 50% of the estrogen receptor.

Each structure is given as a SMILES string.

Sequence of ERα (P03372 whole entry): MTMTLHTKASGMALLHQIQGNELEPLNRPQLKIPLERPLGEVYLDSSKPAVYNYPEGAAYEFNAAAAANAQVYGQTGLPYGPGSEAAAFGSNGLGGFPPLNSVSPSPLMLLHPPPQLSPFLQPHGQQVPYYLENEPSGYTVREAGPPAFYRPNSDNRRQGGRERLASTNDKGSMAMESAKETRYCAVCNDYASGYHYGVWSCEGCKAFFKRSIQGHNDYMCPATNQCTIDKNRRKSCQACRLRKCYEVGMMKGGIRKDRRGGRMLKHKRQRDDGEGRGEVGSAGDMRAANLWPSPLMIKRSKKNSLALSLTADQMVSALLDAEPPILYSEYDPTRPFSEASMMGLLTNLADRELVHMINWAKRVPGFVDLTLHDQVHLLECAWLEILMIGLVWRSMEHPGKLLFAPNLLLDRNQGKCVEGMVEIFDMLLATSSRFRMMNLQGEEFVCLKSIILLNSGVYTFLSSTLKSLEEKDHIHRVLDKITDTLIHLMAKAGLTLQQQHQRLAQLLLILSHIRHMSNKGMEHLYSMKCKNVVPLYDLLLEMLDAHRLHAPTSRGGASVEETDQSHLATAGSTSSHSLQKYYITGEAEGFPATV

As for `COc1c(Cl)cccc1C1=C(c2ccc(C=C3CN(CCCF)C3)cc2)c2ccc(C(=O)O)cc2CCC1` [Compound 49, 8-(3-chloro-2-methoxyphenyl)-9-(4-((1-(3-fluoropropyl)azetidin-3-ylidene)methyl)phenyl)-6,7-dihydro-5H-benzo[7]annulene-3-carboxylic acid], the “% Degradation At 0.3 μM” value is 93%. Also, the IC50 under setting [1] is 0.5 nM.

For the compound `Cc1cc(C2=C(c3ccc(C=C4CN(CCCF)C4)cc3)c3ccc(C(=O)O)cc3CCC2)c(C)cc1F` [Compound 27, 8-(4-fluoro-2,5-dimethylphenyl)-9-(4-((1-(3-fluoropropyl)azetidin-3-ylidene)methyl)phenyl)-6,7-dihydro-5H-benzo[7]annulene-3-carboxylic acid], the “% Degradation At 0.3 μM” value was found to be 93%. The midpoint of inhibition under setting [1], the IC50, lay at 0.5 nM.

In the case of `CCc1c(C2=C(c3ccc(C=C4CN(CCCF)C4)cc3)c3ccc(C(=O)O)cc3CCC2)cccc1C(F)(F)F` [Compound 5, 8-(2-ethyl-3-(trifluoromethyl)phenyl)-9-(4-((1-(3-fluoropropyl)azetidin-3-ylidene)methyl)phenyl)-6,7-dihydro-5H-benzo[7]annulene-3-carboxylic acid], the “% Degradation At 0.3 μM” value turned out to be 93%. The same compound showed an IC50 under setting [1] of 0.3 nM.

Turning to `O=C(O)c1ccc2c(c1)CCCC(c1c(F)cccc1OC(F)(F)F)=C2c1ccc(C=C2CN(CCCF)C2)cc1` [Compound 9, 8-(2-fluoro-6-(trifluoromethoxy)phenyl)-9-(4-((1-(3-fluoropropyl)azetidin-3-ylidene)methyl)phenyl)-6,7-dihydro-5H-benzo[7]annulene-3-carboxylic acid], the “% Degradation At 0.3 μM” value is 96%. This compound had an IC50 under setting [1] of 0.6 nM.

On to `CCc1cccc(CC)c1C1=C(c2ccc(C=C3CN(CCCF)C3)cc2)c2ccc(C(=O)O)cc2CCC1` [Compound 74, 8-(2,6-diethylphenyl)-9-(4-((1-(3-fluoropropyl)azetidin-3-ylidene)methyl)phenyl)-6,7-dihydro-5H-benzo[7]annulene-3-carboxylic acid], for which the “% Degradation At 0.3 μM” value amounted to 90%. Moreover, the IC50 under setting [1] amounted to 0.8 nM.

For the compound `COc1cc(C2=C(c3ccc(C=C4CN(CCCF)C4)cc3)c3ccc(C(=O)O)cc3CCC2)ccc1C(F)F` [Compound 31, 8-(4-(difluoromethyl)-3-methoxyphenyl)-9-(4-((1-(3-fluoropropyl)azetidin-3-ylidene)methyl)phenyl)-6,7-dihydro-5H-benzo[7]annulene-3-carboxylic acid], the “% Degradation At 0.3 μM” value amounted to 95%. Under setting [1], this compound came in with an IC50 of 37.8 nM.

Take `COc1cccc(C2=C(c3ccc(C=C4CN(CCCF)C4)cc3)c3ccc(C(=O)O)cc3CCC2)c1C(F)(F)F` [Compound 52, 9-(4-((1-(3-fluoropropyl)azetidin-3-ylidene)methyl)phenyl)-8-(3-methoxy-2-(trifluoromethyl)phenyl)-6,7-dihydro-5H-benzo[7]annulene-3-carboxylic acid]: the “% Degradation At 0.3 μM” value is 94%. The IC50 under setting [1] came out at 0.4 nM.

Regarding `COc1cccc(C2=C(c3ccc(C=C4CN(CCCF)C4)cc3)c3ccc(C(=O)O)cc3CCC2)c1OC` [Compound 81, 8-(2,3-dimethoxyphenyl)-9-(4-((1-(3-fluoropropyl)azetidin-3-ylidene)methyl)phenyl)-6,7-dihydro-5H-benzo[7]annulene-3-carboxylic acid], the “% Degradation At 0.3 μM” value was 92%. Under setting [1], this compound came in with an IC50 of 0.7 nM.

Consider `CCc1cccc(C2=C(c3ccc(C=C4CN(CCCF)C4)cc3)c3ccc(C(=O)O)cc3CCC2)c1C(F)(F)F` [Compound 8, 8-(3-ethyl-2-(trifluoromethyl)phenyl)-9-(4-((1-(3-fluoropropyl)azetidin-3-ylidene)methyl)phenyl)-6,7-dihydro-5H-benzo[7]annulene-3-carboxylic acid], for which the “% Degradation At 0.3 μM” value was determined as 93%. Half-maximal inhibition under setting [1] (IC50) was put at 0.8 nM.

Consider `O=C(O)c1ccc2c(c1)CCCC(c1c(Cl)cccc1OC(F)(F)F)=C2c1ccc(C=C2CN(CCCF)C2)cc1` [Compound 17, 8-(2-chloro-6-(trifluoromethoxy)phenyl)-9-(4-((1-(3-fluoropropyl)azetidin-3-ylidene)methyl)phenyl)-6,7-dihydro-5H-benzo[7]annulene-3-carboxylic acid], for which the “% Degradation At 0.3 μM” value amounted to 91%. Besides, the IC50 under setting [1] was found to be 0.5 nM.

Regarding `Cc1cccc(C2=C(c3ccc(C=C4CN(CCCF)C4)cc3)c3ccc(C(=O)O)cc3CCC2)c1C(F)F` [Compound 30, 8-(2-(difluoromethyl)-3-methylphenyl)-9-(4-((1-(3-fluoropropyl)azetidin-3-ylidene)methyl)phenyl)-6,7-dihydro-5H-benzo[7]annulene-3-carboxylic acid], the “% Degradation At 0.3 μM” value was determined as 91%. This compound also had an IC50 under setting [1] of 0.4 nM.

With `Cc1ccc(C(F)F)c(C2=C(c3ccc(C=C4CN(CCCF)C4)cc3)c3ccc(C(=O)O)cc3CCC2)c1` [Compound 57, 8-(2-(difluoromethyl)-5-methylphenyl)-9-(4-((1-(3-fluoropropyl)azetidin-3-ylidene)methyl)phenyl)-6,7-dihydro-5H-benzo[7]annulene-3-carboxylic acid], the “% Degradation At 0.3 μM” value turned out to be 93%. This compound displayed an IC50 under setting [1] of 0.7 nM.

For `COc1cc(C)cc(C)c1C1=C(c2ccc(C=C3CN(CCCF)C3)cc2)c2ccc(C(=O)O)cc2CCC1` [Compound 14, 9-(4-((1-(3-fluoropropyl)azetidin-3-ylidene)methyl)phenyl)-8-(2-methoxy-4,6-dimethylphenyl)-6,7-dihydro-5H-benzo[7]annulene-3-carboxylic acid], the “% Degradation At 0.3 μM” value amounted to 91%. The IC50 under setting [1] is 0.6 nM.

For `COc1cccc(C(F)(F)F)c1C1=C(c2ccc(C=C3CN(CCCF)C3)cc2)c2ccc(C(=O)O)cc2CCC1` [Compound 6, 9-(4-((1-(3-fluoropropyl)azetidin-3-ylidene)methyl)phenyl)-8-(2-methoxy-6-(trifluoromethyl)phenyl)-6,7-dihydro-5H-benzo[7]annulene-3-carboxylic acid], the “% Degradation At 0.3 μM” value was determined as 91%. For the same compound, the midpoint of inhibition under setting [1], the IC50, lay at 0.3 nM.

As for `CC1(C)CCC(C2=C(c3ccc(C=C4CN(CCCF)C4)cc3)c3ccc(C(=O)O)cc3CCC2)CC1` [Compound 68, 8-(4,4-dimethylcyclohexyl)-9-(4-((1-(3-fluoropropyl)azetidin-3-ylidene)methyl)phenyl)-6,7-dihydro-5H-benzo[7]annulene-3-carboxylic acid], the “% Degradation At 0.3 μM” value came to 86%. Further, the DC50 (4 hours post compound addition, concentration which degrades 50% of the estrogen receptor, read-out: Degradation IC50) is 0.7 nM.

For the compound `Cc1cc(C)c(C2=C(c3ccc(C=C4CN(CCCF)C4)cc3)c3ccc(C(=O)O)cc3CCC2)c(Cl)c1` [Compound 11, 8-(2-chloro-4,6-dimethylphenyl)-9-(4-((1-(3-fluoropropyl)azetidin-3-ylidene)methyl)phenyl)-6,7-dihydro-5H-benzo[7]annulene-3-carboxylic acid], the “% Degradation At 0.3 μM” value is recorded as 92%. Further, under setting [1], the IC50 is 0.4 nM.

Take `O=C(O)c1ccc2c(c1)CCCC(c1cccc3c1CCCO3)=C2c1ccc(C=C2CN(CCCF)C2)cc1` [Compound 64, 8-(chroman-5-yl)-9-(4-((1-(3-fluoropropyl)azetidin-3-ylidene)methyl)phenyl)-6,7-dihydro-5H-benzo[7]annulene-3-carboxylic acid]: the “% Degradation At 0.3 μM” value is recorded as 96%. Moreover, the IC50 under setting [1] came to 3.1 nM.

With `Cc1ccc(C2=C(c3ccc(C=C4CN(CCCF)C4)cc3)c3ccc(C(=O)O)cc3CCC2)c(C(F)F)c1` [Compound 43, 8-(2-(difluoromethyl)-4-methylphenyl)-9-(4-((1-(3-fluoropropyl)azetidin-3-ylidene)methyl)phenyl)-6,7-dihydro-5H-benzo[7]annulene-3-carboxylic acid], the “% Degradation At 0.3 μM” value was determined as 91%. The same compound yielded an IC50 under setting [1] of 0.5 nM.

`COc1c(C)cccc1C1=C(c2ccc(C=C3CN(CCCF)C3)cc2)c2ccc(C(=O)O)cc2CCC1` [Compound 3, 9-(4-((1-(3-fluoropropyl)azetidin-3-ylidene)methyl)phenyl)-8-(2-methoxy-3-methylphenyl)-6,7-dihydro-5H-benzo[7]annulene-3-carboxylic acid]: the “% Degradation At 0.3 μM” value was found to be 90%. Also, it took 0.7 nM to reach half-maximal inhibition under setting [1] (IC50).

Consider `COc1cc(C(F)(F)F)cc(C(F)(F)F)c1C1=C(c2ccc(C=C3CN(CCCF)C3)cc2)c2ccc(C(=O)O)cc2CCC1` [Compound 71, 9-(4-((1-(3-fluoropropyl)azetidin-3-ylidene)methyl)phenyl)-8-(2-methoxy-4,6-bis(trifluoromethyl)phenyl)-6,7-dihydro-5H-benzo[7]annulene-3-carboxylic acid], for which the “% Degradation At 0.3 μM” value stood at 95%. In addition, inhibition under setting [1] was half-maximal at 0.5 nM (IC50).
